Reference: patent US20130303535A1, “NOVEL BICYCLIC HETEROCYCLIC COMPOUND” (priority 2008, published 2013)

Molecular target: TTX resistant Na channel of human SNS-expressing cell (SNS) (Homo sapiens, UniProt Q9Y5Y9)
Test: cell-based
Conditions: CHO-K1, compound concentration 12.5 μM; read-out: SNS inhibitory rate (%)

TTX resistant Na channel of human SNS-expressing cell (SNS), sequence (Q9Y5Y9 whole entry, looked up): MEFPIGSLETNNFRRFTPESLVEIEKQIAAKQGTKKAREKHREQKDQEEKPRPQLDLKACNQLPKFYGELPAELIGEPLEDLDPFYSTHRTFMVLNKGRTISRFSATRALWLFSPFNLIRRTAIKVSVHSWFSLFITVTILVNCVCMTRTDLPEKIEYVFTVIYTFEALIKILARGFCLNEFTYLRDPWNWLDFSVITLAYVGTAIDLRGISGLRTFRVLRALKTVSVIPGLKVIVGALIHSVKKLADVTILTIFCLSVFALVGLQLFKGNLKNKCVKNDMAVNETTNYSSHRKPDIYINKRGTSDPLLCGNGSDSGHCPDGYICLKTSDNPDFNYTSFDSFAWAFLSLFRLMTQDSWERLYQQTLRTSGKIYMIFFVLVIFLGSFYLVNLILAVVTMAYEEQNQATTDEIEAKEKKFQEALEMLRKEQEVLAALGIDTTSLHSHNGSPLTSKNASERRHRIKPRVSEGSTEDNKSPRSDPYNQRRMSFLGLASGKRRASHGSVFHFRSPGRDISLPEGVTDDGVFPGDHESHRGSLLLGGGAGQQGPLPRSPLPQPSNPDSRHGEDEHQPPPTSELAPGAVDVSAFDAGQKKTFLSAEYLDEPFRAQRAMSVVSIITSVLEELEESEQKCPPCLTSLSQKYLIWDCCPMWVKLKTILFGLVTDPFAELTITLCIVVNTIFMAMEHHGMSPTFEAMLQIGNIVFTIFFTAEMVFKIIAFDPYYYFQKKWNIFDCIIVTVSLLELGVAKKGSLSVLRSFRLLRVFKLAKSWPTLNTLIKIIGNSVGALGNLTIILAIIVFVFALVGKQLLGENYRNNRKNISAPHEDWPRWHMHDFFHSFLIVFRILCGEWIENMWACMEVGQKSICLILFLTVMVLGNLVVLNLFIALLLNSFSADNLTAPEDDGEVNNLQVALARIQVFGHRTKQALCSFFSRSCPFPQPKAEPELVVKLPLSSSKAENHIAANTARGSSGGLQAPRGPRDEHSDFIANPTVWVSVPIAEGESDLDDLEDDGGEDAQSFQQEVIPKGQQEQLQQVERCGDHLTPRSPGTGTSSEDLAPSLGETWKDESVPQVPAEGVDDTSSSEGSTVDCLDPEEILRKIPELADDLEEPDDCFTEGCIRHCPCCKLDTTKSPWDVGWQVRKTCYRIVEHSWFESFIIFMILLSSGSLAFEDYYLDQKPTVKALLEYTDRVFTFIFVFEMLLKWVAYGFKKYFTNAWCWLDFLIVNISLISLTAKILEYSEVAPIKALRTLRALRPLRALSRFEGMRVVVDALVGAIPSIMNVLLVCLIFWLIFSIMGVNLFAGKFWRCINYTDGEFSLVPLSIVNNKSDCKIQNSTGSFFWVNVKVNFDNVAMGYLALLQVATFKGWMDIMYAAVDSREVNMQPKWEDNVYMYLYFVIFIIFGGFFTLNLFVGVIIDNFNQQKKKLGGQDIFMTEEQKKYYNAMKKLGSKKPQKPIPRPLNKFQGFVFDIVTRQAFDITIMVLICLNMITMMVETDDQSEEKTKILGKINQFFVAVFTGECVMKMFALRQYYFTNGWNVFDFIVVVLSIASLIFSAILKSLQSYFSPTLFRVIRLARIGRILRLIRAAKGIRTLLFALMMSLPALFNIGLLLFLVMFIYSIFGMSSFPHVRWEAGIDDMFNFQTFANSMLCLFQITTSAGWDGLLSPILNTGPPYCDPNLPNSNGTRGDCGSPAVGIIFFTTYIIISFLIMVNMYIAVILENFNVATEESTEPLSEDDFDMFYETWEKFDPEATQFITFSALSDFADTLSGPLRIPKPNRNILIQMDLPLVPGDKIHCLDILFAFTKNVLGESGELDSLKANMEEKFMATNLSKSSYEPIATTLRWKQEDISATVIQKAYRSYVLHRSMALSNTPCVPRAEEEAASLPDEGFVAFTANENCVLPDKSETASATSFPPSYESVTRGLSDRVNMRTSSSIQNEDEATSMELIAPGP

SMILES	inhibition at 12.5 µM [%]
CCOCCn1c(CN[C@@H](C)C(N)=O)nc2ccc(Oc3cc(F)c(F)cc3F)cc21 [Example 55]	89.4
C[C@H](NCc1nc2ccc(Oc3ccc(F)cc3)cc2n1C[C@@H]1CCCO1)C(N)=O [Example 56]	82.2
CCOCCn1c(CN[C@@H](C)C(N)=O)nc2ccc(Oc3cc(F)cc(F)c3F)cc21 [Example 57]	87.6
CCOCCn1c(CN[C@@H](C)C(N)=O)nc2ccc(Oc3cccc(F)c3F)cc21 [Example 58]	71.2
CCOCCn1c(CN[C@@H](C)C(N)=O)nc2ccc(Oc3ccc(F)cc3)cc21 [Example 59, N^2-{[1-(2-ethoxyethyl)-6-(4-fluorophenoxy)-1H-benzimidazol-2-yl]methyl}-L-alaninamide]	54.8
COCCn1c(CN[C@@H](C)C(N)=O)nc2ccc(Oc3ccc(F)cc3)cc21 [Example 60]	75.7
CC(C)OCCn1c(CNCC(N)=O)nc2ccc(Oc3ccc(F)cc3)cc21 [Example 61]	26.1
CC(C)OCCn1c(CN[C@@H](C)C(N)=O)nc2ccc(Oc3ccc(F)cc3)cc21 [Example 62]	93.8
COCCn1c(CNCC(N)=O)nc2ccc(Oc3ccc(F)cc3)cc21 [Example 63]	9.2
COCCCn1c(CN[C@@H](C)C(N)=O)nc2ccc(Oc3ccc(F)cc3)cc21 [Example 64]	82.7
NC(=O)CNCc1nc2ccc(Oc3ccc(F)cc3)cc2n1C1CCOCC1 [Example 65]	47.8
CCOCCn1c(CNCC(N)=O)nc2ccc(-c3ccccc3)cc21 [Example 66, N^2-{[1-(2-ethoxyethyl)-6-phenyl-1H-benzimidazol-2-yl]methyl}glycinamide]	16.8
CCOCCn1c(CNCC(N)=O)nc2ccc(-c3ccc(F)cc3)cc21 [Example 67]	30.8
CCOCCn1c(CN[C@@H](C)C(N)=O)nc2ccc(-c3ccc(F)cc3)cc21 [Example 68]	16
CCOCCn1c(CN[C@@H](C)C(N)=O)nc2ccc(-c3ccccc3)cc21 [Example 69]	22.3
CCOCCn1c(CNCC(N)=O)nc2ccc(-c3ccccc3Cl)cc21 [Example 70]	11.2
CCOCCn1c(CN[C@@H](C)C(N)=O)nc2ccc(-c3ccccc3Cl)cc21 [Example 71]	73.7
CCOCCn1c(CNCC(N)=O)nc2ccc(-c3ccc(Cl)cc3)cc21 [Example 72]	7.3
CCOCCn1c(CN[C@@H](C)C(N)=O)nc2ccc(-c3ccc(Cl)cc3)cc21 [Example 73]	8

SMILES	inhibition at 12.5 µM [%]
CCOCCn1c(CN[C@@H](C)C(N)=O)nc2ccc(Oc3ccc(C(C)(C)C)cc3)cc21 [Example 74, N^2-{[6-(4-tert-butylphenoxy)-1-(2-ethoxyethyl)-1H-benzimidazol-2-yl]methyl}-L-alaninamide]	58.2
CCOCCn1c(CN[C@@H](C)C(N)=O)nc2ccc(Oc3ccc(OC)cc3)cc21 [Example 75, N^2-{[1-(2-ethoxyethyl)-6-(4-methoxyphenoxy)-1H-benzimidazol-2-yl]methyl}-L-alaninamide]	0
CCOCCn1c(CN[C@@H](C)C(N)=O)nc2ccc(OCc3ccccc3)cc21 [Example 76, N^2-{[6-(benzyloxy)-1-(2-ethoxyethyl)-1H-benzimidazol-2-yl]methyl}-L-alaninamide]	18.8
CCOCCn1c(CNC(C)(C)C(N)=O)nc2ccc(OCc3ccccc3)cc21 [Example 77, N^2-{[6-(benzyloxy)-1-(2-ethoxyethyl)-1H-benzimidazol-2-yl]methyl}-2-methylalaninamide]	16
CCOCCn1c(CN[C@@H](C)C(N)=O)nc2ccc(OCc3ccc(F)cc3)cc21 [Example 78, N^2-({1-(2-ethoxyethyl)-6-[(4-fluorobenzyl)oxy]-1H-benzimidazol-2-yl}methyl)-L-alaninamide]	22.2
CCOCCn1c(CN[C@@H](C)C(N)=O)nc2ccc(Oc3ccccc3)nc21 [Example 79, N^2-{[3-(2-ethoxyethyl)-5-phenoxy-3H-imidazo[4,5-b]pyridin-2-yl]methyl}-L-alaninamide]	3.5
CCOCCn1c(CNCC(N)=O)nc2ccc(Oc3ccccc3)nc21 [Example 80, N^2-{[3-(2-ethoxyethyl)-5-phenoxy-3H-imidazo[4,5-b]pyridin-2-yl]methyl}glycinamide]	2.5
CCOCCn1c(CN[C@@H](C)C(N)=O)nc2cc(F)c(Oc3ccc(F)cc3)cc21 [Example 81, N^2-{[1-(2-ethoxyethyl)-5-fluoro-6-(4-fluorophenoxy)-1H-benzimidazol-2-yl]methyl}-L-alaninamide]	69.1
C[C@H](NCc1nc2ccc(Oc3ccc(F)cc3)cc2n1C1CCN(C(=O)OC(C)(C)C)CC1)C(N)=O [Example 82, tert-butyl 4-[2-({[(2S)-1-amino-1-oxopropan-2-yl]amino}methyl)-6-(4-fluorophenoxy)-1H-benzimidazol-1-yl]piperidine-1-carboxylate]	30.7
C[C@H](NCc1nc2ccc(Oc3ccc(F)cc3)cc2n1C1CCNCC1)C(N)=O [Example 83, N^2-{[6-(4-fluorophenoxy)-1-(piperidin-4-yl)-1H-benzimidazol-2-yl]methyl}-L-alaninamide]	0
CC(C)NC(=O)N1CCC(n2c(CN[C@@H](C)C(N)=O)nc3ccc(Oc4ccc(F)cc4)cc32)CC1 [Example 84, 4-[2-({[(2S)-1-amino-1-oxopropan-2-yl]amino}methyl)-6-(4-fluorophenoxy)-1H-benzimidazol-1-yl]-N-(propan-2-yl)piperidine-1-carboxamide]	76.8
CC(=O)N1CCC(n2c(CN[C@@H](C)C(N)=O)nc3ccc(Oc4ccc(F)cc4)cc32)CC1 [Example 85, N^2-{[1-(1-acetylpiperidin-4-yl)-6-(4-fluorophenoxy)-1H-benzimidazol-2-yl]methyl}-L-alaninamide]	24.9
C[C@H](NCc1nc2ccc(Oc3ccc(F)cc3)cc2n1C1CCN(S(C)(=O)=O)CC1)C(N)=O [Example 86, N^2-({6-(4-fluorophenoxy)-1-[1-(methylsulfonyl)piperidin-4-yl]-1H-benzimidazol-2-yl}methyl)-L-alaninamide]	8.3
CCOCCn1c(CN[C@@H](C)C(=O)NCC(C)(C)O)nc2ccc(Oc3ccc(F)cc3)cc21 [Example 87, N^2-{[1-(2-ethoxyethyl)-6-(4-fluorophenoxy)-1H-benzimidazol-2-yl]methyl}-N-(2-hydroxy-2-methylpropyl)-L-alaninamide]	90.1
CCOCCn1c(CN[C@@H](C)C(=O)NCCOC)nc2ccc(Oc3ccc(F)cc3)cc21 [Example 88]	83.5
CCOCCn1c(CN[C@@H](C)C(=O)NCCN2CCOCC2)nc2ccc(Oc3ccc(F)cc3)cc21 [Example 89]	83
CCOCCn1c(CN[C@@H](C)C(=O)N2CCOCC2)nc2ccc(Oc3ccc(F)cc3)cc21 [Example 90]	96.1
COCCn1c(CNC(C)(C)C(N)=O)nc2ccc(Oc3ccc(F)cc3)cc21 [Example 91, N^2-{[6-(4-fluorophenoxy)-1-(2-methoxyethyl)-1H-benzimidazol-2-yl]methyl}-2-methylalaninamide]	76.4
CCOCCn1c(CN[C@@H](C)C(N)=O)nc2cc(Cl)c(-c3ccc(F)cc3)cc21 [Example 92, N^2-{[5-chloro-1-(2-ethoxyethyl)-6-(4-fluorophenyl)-1H-benzimidazol-2-yl]methyl}-L-alaninamide]	66.7

SMILES	inhibition at 12.5 µM [%]
CCOCCn1c(CN[C@@H](C)C(N)=O)nc2ccc(Oc3ccc(F)cc3Cl)cc21 [Example 93]	82.1
CCOCCn1c(CN[C@@H](C)C(N)=O)nc2ccc(Oc3ccc(C(C)C)cc3)cc21 [Example 94]	63.9
CCOCCn1c(CN[C@@H](C)C(N)=O)nc2ccc(Oc3ccc4c(c3)CCC4)cc21 [Example 95]	26.8
CCn1c(CN[C@@H](C)C(N)=O)nc2ccc(Oc3ccc(C)cc3)cc21 [Example 96]	84.8
CCn1c(CN[C@@H](C)C(N)=O)nc2ccc(Oc3ccc(F)c(F)c3)cc21 [Example 97]	82.4
CCn1c(CN[C@@H](C)C(N)=O)nc2ccc(Oc3ccc(F)cc3F)cc21 [Example 98]	69.8
C[C@H](NCc1nc2ccc(Oc3ccc(F)cc3F)cc2n1C1CC1)C(N)=O [Example 99]	65.4
C[C@H](NCc1nc2ccc(Oc3ccc(OC(F)(F)F)cc3)cc2n1C1CC1)C(N)=O [Example 100]	72.1
Cc1ccc(Oc2ccc3nc(CN[C@@H](C)C(N)=O)n(CC(C)(C)O)c3c2)cc1 [Example 101]	85.2
CCOCCn1c(CN[C@@H](C)C(N)=O)nc2ccc(Oc3ccc(CC)cc3)cc21 [Example 102]	96.3
C[C@H](NCc1nc2ccc(Oc3ccc(OC(F)(F)F)cc3)cc2n1CC(C)(C)O)C(N)=O [Example 103]	87.9
CCn1c(CN[C@@H](C)C(N)=O)nc2ccc(Oc3ccc(OC(F)(F)F)cc3)cc21 [Example 104]	83.6
C[C@H](NCc1nc2ccc(Oc3ccc(F)cc3F)cc2n1CC(C)(C)O)C(N)=O [Example 105]	75.1
CCOCCn1c(CN[C@@H](C)C(=O)N2CCNC(=O)C2)nc2ccc(Oc3ccc(F)cc3)cc21 [Example 106]	86.4
CCOCCn1c(CN[C@@H](C)C(=O)N2CCNC(C#N)C2)nc2ccc(Oc3ccc(F)cc3)cc21 (some centres unmarked) [Example 107]	83.7
CCOCCn1c(CN[C@@H](C)C(=O)N2CCNC(C(F)(F)F)C2)nc2ccc(Oc3ccc(F)cc3)cc21 (some centres unmarked) [Example 108]	85.3
CCOCCn1c(CN[C@@H](C)C(N)=O)nc2cc(F)c(-c3ccc(F)cc3)cc21 [Example 109, N^2-{[1-(2-ethoxyethyl)-5-fluoro-6-(4-fluorophenyl)-1H-benzimidazol-2-yl]methyl}-L-alaninamide]	89.3
CCn1c(CN[C@@H](C)C(N)=O)nc2ccc(-c3ccc(F)cc3)cc21 [Example 110, N^2-{[1-ethyl-6-(4-fluorophenyl)-1H-benzimidazol-2-yl]methyl}-L-alaninamide]	9.8
